From patent US20100010002A1, “ANTICANCER USE OF CAFFEIC ACID AND ITS DERIVATIVES” (Piramal Life Sciences Limited, priority 2006, published 2010) come the findings set out here.

The test system of one data set is K562. Put plainly: CCK-8 cell proliferation and cytotoxicity assay, K562. It is filed as cell-based, Human. To be noted: read-out: Inhibitory concentration (IC50), K562.
A further data set concerns the target T1, Ba/F3 Bcr-Abl/WT (Homo sapiens, UniProt P00519).
T1 construct: fused on or other part: P11274 (Breakpoint cluster region protein)
Kind of data set: CCK-8 assay, Ba/F3 Bcr-Abl/WT. In kind it is cell-based. The settings on record: CCK-8, 72 h, imatinib mesylate sensitive; read-out: Inhibitory concentration (IC50), Ba/F3 Bcr-Abl/WT. An excerpt:
(§1) The cell lines described in Table 3 were used to test the antiproliferative activity of test compounds.
(§2) Cell Counting Kit-8 (CCK-8) allows very convenient assay by utilizing Dojindo's highly water-soluble tetrazolium salt. CCK-8, being nonradioactive, allows sensitive colorimetric assay for the determination of number of viable cells in cell proliferation and cytotoxicity assays. The amount of the formazan dye generated by dehydrogenases in cells is directly proportional to the number of living cells. Thus, the CCK-8 assay can also be substituted for the H^3-Thymidine incorporation assay.
(§3) Plates were further incubated at 37° C., 5% CO2 incubator for 72 h. 10 μl of the CCK-8 solution was added to each well and plate was incubated for 1-4 h in the incubator. Measured the absorbance at 450 nm using a microplate reader.
(§4) A. The percent inhibition and IC50 were calculated in comparison with control values.
For orientation: Tetrazolium assays rely on reduction of a dye to a coloured formazan, in cell work by metabolically active cells.

For a further data set, the target named is Ba/F3 Bcr-Abl/T315I (Homo sapiens, UniProt P00519, T315I, cells depend on it).
Description: as §1, §2, §3, §4

A further data set concerns the target T2, Ba/F3 Bcr-Abl/E255K (Homo sapiens, UniProt P00519, E255K, cells depend on it).
T2 construct: fused on or other part: P11274 (Breakpoint cluster region protein)
Put plainly: CCK-8 assay, Ba/F3 Bcr-Abl/E255K. It is filed as cell-based.

The target of another data set is T3, Ba/F3 Bcr-Abl/E255V (Homo sapiens, UniProt P00519, E255V, cells depend on it).
T3 construct: fused on or other part: P11274 (Breakpoint cluster region protein)
Kind of data set: CCK-8 assay, Ba/F3 Bcr-Abl/E255V. In kind it is cell-based.

The target of another data set is T4, Ba/F3 Bcr-Abl/F317L (Homo sapiens, UniProt P00519, F317L, cells depend on it).
T4 construct: fused on or other part: P11274 (Breakpoint cluster region protein)
Kind of data set: CCK-8 assay, Ba/F3 Bcr-Abl/F317L. It is filed as cell-based.

In another data set the target is T5, Ba/F3 Bcr-Abl/F359V (Homo sapiens, UniProt P00519, F359V, cells depend on it).
T5 construct: fused on or other part: P11274 (Breakpoint cluster region protein)
Kind of data set: CCK-8 assay, Ba/F3 Bcr-Abl/F359V. It is filed as cell-based.

The target of the next data set is T6, Ba/F3 Bcr-Abl/H396P (Homo sapiens, UniProt P00519, H396P, cells depend on it).
T6 construct: fused on or other part: P11274 (Breakpoint cluster region protein)
Put plainly: CCK-8 assay, Ba/F3 Bcr-Abl/H396P. It is filed as cell-based.

The next data set has as its target T7, Ba/F3 Bcr-Abl/H396R (Homo sapiens, UniProt P00519, H396R, cells depend on it).
T7 construct: fused on or other part: P11274 (Breakpoint cluster region protein)
Kind of data set: CCK-8 assay, Ba/F3 Bcr-Abl/H396R. It is filed as cell-based.

The target in the next data set is T8, Ba/F3 Bcr-Abl/M244V (Homo sapiens, UniProt P00519, M244V, cells depend on it).
T8 construct: fused on or other part: P11274 (Breakpoint cluster region protein)
Put plainly: CCK-8 assay, Ba/F3 Bcr-Abl/M244V. In kind it is cell-based.

The next data set concerns the target T9, Ba/F3 Bcr-Abl/M351T (Homo sapiens, UniProt P00519, M351T, cells depend on it).
T9 construct: fused on or other part: P11274 (Breakpoint cluster region protein)
Kind of data set: CCK-8 assay, Ba/F3 Bcr-Abl/M351T. It is filed as cell-based.

For a further data set, the target named is T10, Ba/F3 Bcr-Abl/Q252H (Homo sapiens, UniProt P00519, Q252H, cells depend on it).
T10 construct: fused on or other part: P11274 (Breakpoint cluster region protein)
Kind of data set: CCK-8 assay, Ba/F3 Bcr-Abl/Q252H. It is filed as cell-based.

The target of a further data set is T11, Ba/F3 Bcr-Abl/Y253F (Homo sapiens, UniProt P00519, Y253F, cells depend on it).
T11 construct: fused on or other part: P11274 (Breakpoint cluster region protein)
Kind of data set: CCK-8 assay, Ba/F3 Bcr-Abl/Y253F. In kind it is cell-based.

A further data set concerns the target T12, Ba/F3 Bcr-Abl/Y253H (Homo sapiens, UniProt P00519, Y253H, cells depend on it).
T12 construct: fused on or other part: P11274 (Breakpoint cluster region protein)
Put plainly: CCK-8 assay, Ba/F3 Bcr-Abl/Y253H. In kind it is cell-based.

Setting [1] is: CCK-8, 72 h, imatinib mesylate sensitive K562.
Setting [2] is: read-out: Inhibitory concentration (IC50), Ba/F3 Bcr-Abl/T315I, CCK-8, 72 h, imatinib mesylate resistant, Table 4.
Setting [3] is: mouse, ba/f3 bcr-abl/t315i, 72 h.

SMILES strings stand for the structures. Where two headings read alike, the source gives them in different places.

`CCN1CCN(C(=O)C=Cc2ccc(O)c(O)c2)CC1` [Compound 9, 3-(3,4-Dihydroxy-phenyl)-1-(4-ethyl-piperazin-1-yl)-propenone]: in the data set on K562 (setting [1]), the IC50 was found to be 59.5 µM. Moreover, the GI50 at Ba/F3 Bcr-Abl/WT came to 40.6 ± 16.4 µM; at Ba/F3 Bcr-Abl/T315I (setting [2]), 43.1 ± 27.9 µM.
For `CN1CCC(N2CCN(C(=O)/C=C/c3ccc(O)c(O)c3)CC2)CC1` [Compound 12, (E)-3-(3,4-dihydroxy-phenyl)-1-[4-(1-methyl-piperidin-4-yl)piperazin-1-yl]-propenone] the same measures were over 30 µM, over 30 µM and over 30 µM.
With `O=C(/C=C/c1ccc(O)c(O)c1)N1CCN(c2ccccc2)CC1` [Compound 13, (E)-3-(3,4-dihydroxy-phenyl)-1-(4-phenylpiperazin-1-yl)-propenone], the IC50 in the data set on K562 (setting [1]) amounted to 33.5 µM. Also, the GI50 was found to be 27 ± 8.5 µM at Ba/F3 Bcr-Abl/WT and 26.6 ± 6.5 µM at Ba/F3 Bcr-Abl/T315I (setting [2]).
In the case of `O=C(C=Cc1ccc(O)c(O)c1)N1CCN(Cc2ccccc2)CC1` [Compound 10, 1-(4-Benzyl-piperazin-1-yl) 3-(3,4-dihydroxy-phenyl)-propenone], the IC50 with K562 (setting [1]) was 18 µM. Moreover, the GI50 was determined as 2.8 ± 0.4 µM at Ba/F3 Bcr-Abl/WT; 3.1 µM on Ba/F3 Bcr-Abl/T315I (ba/f3 bcr-abl/t315i); 2.5 ± 1.5 µM at Ba/F3 Bcr-Abl/T315I (setting [2]); 2.4 µM on Ba/F3 Bcr-Abl/E255K; 2.1 µM at Ba/F3 Bcr-Abl/E255V; 1.2 µM at Ba/F3 Bcr-Abl/F317L. The GI50 on Ba/F3 Bcr-Abl/F359V was 2.6 µM; at Ba/F3 Bcr-Abl/H396P, 3.7 µM; at Ba/F3 Bcr-Abl/H396R, 1 µM; on Ba/F3 Bcr-Abl/M244V, 1.3 µM; at Ba/F3 Bcr-Abl/M351T, 2.2 µM; on Ba/F3 Bcr-Abl/Q252H, 1.5 µM. For the same molecule, the GI50 was found to be 1.1 µM on Ba/F3 Bcr-Abl/Y253F and 2.5 µM on Ba/F3 Bcr-Abl/Y253H.
In the case of `CCCOC(=O)C=Cc1ccc(O)c(O)c1` [Compound 5, 3-(3,4-Dihydroxy-phenyl)-acrylic acid n-propyl ester], the IC50 in the data set with K562 (Homo sapiens, K562, 72 h) worked out at 13.5 ± 2.1 µM. In addition, the GI50 came to 2.4 ± 0.8 µM at Ba/F3 Bcr-Abl/WT; 0.6 µM at Ba/F3 Bcr-Abl/T315I (setting [3]); 0.7 ± 0.1 µM at Ba/F3 Bcr-Abl/T315I (setting [2]); 2.9 µM at Ba/F3 Bcr-Abl/E255K (mouse, 72 h); 3.4 µM at Ba/F3 Bcr-Abl/E255V (mouse, 72 h); 1.6 µM at Ba/F3 Bcr-Abl/F317L (mouse, 72 h). Further, the GI50 on Ba/F3 Bcr-Abl/F359V (mouse, 72 h) came to 2.5 µM; on Ba/F3 Bcr-Abl/H396P (mouse, 72 h), 5.6 µM; on Ba/F3 Bcr-Abl/H396R (mouse, 72 h) it was 1.1 µM; at Ba/F3 Bcr-Abl/M244V (mouse, 72 h) it was 3 µM; on Ba/F3 Bcr-Abl/M351T (mouse, 72 h), 2.2 µM; on Ba/F3 Bcr-Abl/Q252H (mouse, 72 h), 1.7 µM. In addition, the GI50 at Ba/F3 Bcr-Abl/Y253F (mouse, 72 h) came out at 1.7 µM; on Ba/F3 Bcr-Abl/Y253H (mouse, 72 h) it was 3.3 µM.
As for `CC(C)NC(=O)/C=C/c1ccc(O)c(O)c1` [Compound 18, (E)-3-(3,4-dihydroxy-phenyl)-N-isopropyl-acrylamide], the IC50 with K562 (Homo sapiens, K562, 72 h) stood at 32.1 µM. For the same molecule, the GI50 came out at 19.4 ± 8.8 µM at Ba/F3 Bcr-Abl/WT and 9.5 ± 4.1 µM on Ba/F3 Bcr-Abl/T315I (setting [2]).
In the case of `CC(C)OC(=O)C=Cc1ccc(O)c(O)c1` [Compound 6, 3-(3,4-Dihydroxy-phenyl)-acrylic acid i-propyl ester], the IC50 in the data set with K562 (Homo sapiens, K562, 72 h) amounted to 16.5 ± 2.1 µM. Also, the GI50 at Ba/F3 Bcr-Abl/WT worked out at 2.3 ± 1.1 µM; at Ba/F3 Bcr-Abl/T315I (setting [3]), 2 µM; on Ba/F3 Bcr-Abl/T315I (setting [2]), 1.7 ± 1.1 µM; at Ba/F3 Bcr-Abl/E255K (mouse, 72 h) it was 5.1 µM; at Ba/F3 Bcr-Abl/E255V (mouse, 72 h), 9.9 µM; on Ba/F3 Bcr-Abl/F317L (mouse, 72 h), 11.3 µM. The GI50 turned out to be 14.6 µM at Ba/F3 Bcr-Abl/F359V (mouse, 72 h); 10.8 µM on Ba/F3 Bcr-Abl/H396P (mouse, 72 h); 7 µM on Ba/F3 Bcr-Abl/H396R (mouse, 72 h); 9.8 µM at Ba/F3 Bcr-Abl/M244V (mouse, 72 h); 5.1 µM at Ba/F3 Bcr-Abl/M351T (mouse, 72 h); 5.9 µM at Ba/F3 Bcr-Abl/Q252H (mouse, 72 h). Moreover, the GI50 at Ba/F3 Bcr-Abl/Y253F (mouse, 72 h) came to 5.2 µM; on Ba/F3 Bcr-Abl/Y253H (mouse, 72 h) it was 13.3 µM.
For `CCOC(=O)C=Cc1ccc(O)c(O)c1` [Compound 3, 3-(3,4-Dihydroxy-phenyl)-acrylic acid ethyl ester], the IC50 in the data set on K562 (Homo sapiens, K562, 72 h) amounted to 11.8 ± 8.8 µM. The GI50 on Ba/F3 Bcr-Abl/WT turned out to be 3.3 ± 0.9 µM; at Ba/F3 Bcr-Abl/T315I (setting [3]), 1.1 µM; on Ba/F3 Bcr-Abl/T315I (setting [2]) it was 2.3 ± 0.9 µM; on Ba/F3 Bcr-Abl/E255K (mouse, 72 h), 6.7 µM; on Ba/F3 Bcr-Abl/E255V (mouse, 72 h), 10.2 µM; at Ba/F3 Bcr-Abl/F317L (mouse, 72 h), 12.3 µM. Further, the GI50 was 13.4 µM at Ba/F3 Bcr-Abl/F359V (mouse, 72 h); 16.6 µM on Ba/F3 Bcr-Abl/H396P (mouse, 72 h); 8.6 µM at Ba/F3 Bcr-Abl/H396R (mouse, 72 h); 15.2 µM at Ba/F3 Bcr-Abl/M244V (mouse, 72 h); 8.7 µM at Ba/F3 Bcr-Abl/M351T (mouse, 72 h); 8.4 µM on Ba/F3 Bcr-Abl/Q252H (mouse, 72 h). In addition, the GI50 on Ba/F3 Bcr-Abl/Y253F (mouse, 72 h) amounted to 6.4 µM; at Ba/F3 Bcr-Abl/Y253H (mouse, 72 h) it was 13.2 µM.
